# Columns and labels:
# U-251 [1] = assay: Growth inhibition of human U251 cells assessed as cell growth at 50 uM incubated for 48 hrs by sulforhodamine B assay relative to control; format: functional; details: U-251, 48 h, read-out: Activity
# OVCAR-5 = assay: Growth inhibition of human OVCAR5 cells assessed as cell growth at 0.005 uM incubated for 48 hrs by sulforhodamine B assay relative to control; format: functional; details: OVCAR-5, 48 h, read-out: Activity
# A498 = assay: Growth inhibition of human A498 cells assessed as cell growth at 0.05 uM incubated for 48 hrs by sulforhodamine B assay relative to control; format: functional; details: A498, 48 h, read-out: Activity
# SW-620 = assay: Growth inhibition of human SW620 cells assessed as cell growth at 0.005 uM incubated for 48 hrs by sulforhodamine B assay relative to control; format: functional; details: SW-620, 48 h, read-out: Activity
# U-251 [2] = assay: Growth inhibition of human U251 cells assessed as cell growth at 0.005 uM incubated for 48 hrs by sulforhodamine B assay relative to control; format: functional; details: U-251, 48 h, read-out: Activity
# NCI-H522 = assay: Growth inhibition of human NCI-H522 cells assessed as cell growth at 5 uM incubated for 48 hrs by sulforhodamine B assay relative to control; format: functional; details: NCI-H522, 48 h, read-out: Activity
# RXF 393 = assay: Growth inhibition of human RXF393 cells assessed as cell growth at 0.5 uM incubated for 48 hrs by sulforhodamine B assay relative to control; format: functional; details: RXF 393, 48 h, read-out: Activity
# M14 = assay: Growth inhibition of human M14 cells assessed as cell growth at 50 uM incubated for 48 hrs by sulforhodamine B assay relative to control; format: functional; details: M14, 48 h, read-out: Activity
# OVCAR-8 [3] = assay: Growth inhibition of human OVCAR8 cells assessed as cell growth at 50 uM incubated for 48 hrs by sulforhodamine B assay relative to control; format: functional; details: OVCAR-8, 48 h, read-out: Activity
# SF-295 = assay: Growth inhibition of human SF295 cells assessed as cell growth at 5 uM incubated for 48 hrs by sulforhodamine B assay relative to control; format: functional; details: SF-295, 48 h, read-out: Activity
# PC-3 = assay: Growth inhibition of human PC3 cells assessed as cell growth at 50 uM incubated for 48 hrs by sulforhodamine B assay relative to control; format: functional; details: PC-3, 48 h, read-out: Activity
# MDA-MB-435 = assay: Growth inhibition of human MDA-MB-435 cells assessed as cell growth at 0.005 uM incubated for 48 hrs by sulforhodamine B assay relative to control; format: functional; details: MDA-MB-435, 48 h, read-out: Activity
# IGROV-1 = assay: Growth inhibition of human IGROV1 cells assessed as cell growth at 0.5 uM incubated for 48 hrs by sulforhodamine B assay relative to control; format: functional; details: IGROV-1, 48 h, read-out: Activity
# BT-549 = assay: Growth inhibition of human BT549 cells assessed as cell growth at 50 uM incubated for 48 hrs by sulforhodamine B assay relative to control; format: functional; details: BT-549, 48 h, read-out: Activity
# KM12 = assay: Growth inhibition of human KM12 cells assessed as cell growth at 0.005 uM incubated for 48 hrs by sulforhodamine B assay relative to control; format: functional; details: KM12, 48 h, read-out: Activity
# OVCAR-8 [4] = assay: Growth inhibition of human OVCAR8 cells assessed as cell growth at 0.5 uM incubated for 48 hrs by sulforhodamine B assay relative to control; format: functional; details: OVCAR-8, 48 h, read-out: Activity
# SK-MEL-28 = assay: Growth inhibition of human SK-MEL-28 cells assessed as cell growth at 0.05 uM incubated for 48 hrs by sulforhodamine B assay relative to control; format: functional; details: SK-MEL-28, 48 h, read-out: Activity
# NCI/ADR-RES = assay: Growth inhibition of human NCI/ADR-RES cells assessed as cell growth at 0.05 uM incubated for 48 hrs by sulforhodamine B assay relative to control; format: functional; details: read-out: Activity
# HOP-62 = assay: Growth inhibition of human HOP62 cells assessed as cell growth at 50 uM incubated for 48 hrs by sulforhodamine B assay relative to control; format: functional; details: HOP-62, 48 h, read-out: Activity
# SF-268 = assay: Growth inhibition of human SF268 cells assessed as cell growth at 50 uM incubated for 48 hrs by sulforhodamine B assay relative to control; format: functional; details: SF-268, 48 h, read-out: Activity
# DU-145 [5] = assay: Growth inhibition of human DU145 cells assessed as cell growth at 0.05 uM incubated for 48 hrs by sulforhodamine B assay relative to control; format: functional; details: DU-145, 48 h, read-out: Activity
# T47D = assay: Growth inhibition of human T47D cells assessed as cell growth at 0.005 uM incubated for 48 hrs by sulforhodamine B assay relative to control; format: functional; details: read-out: Activity
# COLO 205 = assay: Growth inhibition of human COLO205 cells assessed as cell growth at 50 uM incubated for 48 hrs by sulforhodamine B assay relative to control; format: functional; details: COLO 205, 48 h, read-out: Activity
# Malme-3M = assay: Growth inhibition of human MALME-3M cells assessed as cell growth at 50 uM incubated for 48 hrs by sulforhodamine B assay relative to control; format: functional; details: read-out: Activity
# UACC-257 = assay: Growth inhibition of human UACC257 cells assessed as cell growth at 0.5 uM incubated for 48 hrs by sulforhodamine B assay relative to control; format: functional; details: UACC-257, 48 h, read-out: Activity
# HL-60(TB) = assay: Growth inhibition of human HL-60(TB) cells assessed as cell growth at 0.5 uM incubated for 48 hrs by sulforhodamine B assay relative to control; format: functional; details: HL-60, 48 h, read-out: Activity
# SK-MEL-2 = assay: Growth inhibition of human SK-MEL-2 cells assessed as cell growth at 50 uM incubated for 48 hrs by sulforhodamine B assay relative to control; format: functional; details: SK-MEL-2, 48 h, read-out: Activity
# DU-145 [6] = assay: Growth inhibition of human DU145 cells assessed as cell growth at 0.005 uM incubated for 48 hrs by sulforhodamine B assay relative to control; format: functional; details: DU-145, 48 h, read-out: Activity
# SK-OV-3 = assay: Growth inhibition of human SKOV3 cells assessed as cell growth at 5 uM incubated for 48 hrs by sulforhodamine B assay relative to control; format: functional; details: SK-OV-3, 48 h, read-out: Activity
# EKVX = assay: Growth inhibition of human EKVX cells assessed as cell growth at 3 uM incubated for 48 hrs by sulforhodamine B assay relative to control; format: functional; details: read-out: Activity
# [7] = test system: Serine/threonine-protein kinase B-raf (Homo sapiens), P15056 [V600E]; assay: Inhibition of human BRAF V600E mutant at 10 uM using MEK1 as substrate in presence of [33P]ATP by Hotspot assay relative to control
# Chain of Serine/threonine-protein kinase B-raf (Homo sapiens), P15056 [V600E] (P15056 whole entry V600E): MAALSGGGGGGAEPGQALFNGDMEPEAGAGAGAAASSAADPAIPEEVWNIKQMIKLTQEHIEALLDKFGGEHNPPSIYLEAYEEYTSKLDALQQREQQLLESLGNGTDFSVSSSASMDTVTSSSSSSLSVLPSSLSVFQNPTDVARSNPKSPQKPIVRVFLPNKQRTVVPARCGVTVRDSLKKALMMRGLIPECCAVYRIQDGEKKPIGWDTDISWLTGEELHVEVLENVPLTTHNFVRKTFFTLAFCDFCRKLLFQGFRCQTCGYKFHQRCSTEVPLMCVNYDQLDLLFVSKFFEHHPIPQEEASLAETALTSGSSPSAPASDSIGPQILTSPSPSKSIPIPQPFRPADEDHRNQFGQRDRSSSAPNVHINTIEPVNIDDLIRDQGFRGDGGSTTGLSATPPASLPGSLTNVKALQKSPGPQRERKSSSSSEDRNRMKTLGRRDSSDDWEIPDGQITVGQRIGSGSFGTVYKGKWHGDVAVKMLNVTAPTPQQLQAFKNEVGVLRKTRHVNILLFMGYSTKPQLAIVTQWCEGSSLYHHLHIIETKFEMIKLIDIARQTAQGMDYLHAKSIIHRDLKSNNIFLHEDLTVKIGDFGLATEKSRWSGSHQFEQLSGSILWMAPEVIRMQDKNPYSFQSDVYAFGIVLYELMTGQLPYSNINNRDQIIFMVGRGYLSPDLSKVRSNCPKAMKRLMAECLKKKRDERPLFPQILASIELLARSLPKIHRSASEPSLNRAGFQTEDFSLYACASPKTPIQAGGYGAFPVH
# [8] = target: Receptor-type tyrosine-protein kinase FLT3 (Homo sapiens) (UniProt P36888); assay: Inhibition of human FLT3 at 10 uM using EAIYAAPFAKKK as substrate in presence of [33P]ATP by Hotspot assay relative to control
# Chain of Receptor-type tyrosine-protein kinase FLT3 (Homo sapiens) (P36888 whole entry): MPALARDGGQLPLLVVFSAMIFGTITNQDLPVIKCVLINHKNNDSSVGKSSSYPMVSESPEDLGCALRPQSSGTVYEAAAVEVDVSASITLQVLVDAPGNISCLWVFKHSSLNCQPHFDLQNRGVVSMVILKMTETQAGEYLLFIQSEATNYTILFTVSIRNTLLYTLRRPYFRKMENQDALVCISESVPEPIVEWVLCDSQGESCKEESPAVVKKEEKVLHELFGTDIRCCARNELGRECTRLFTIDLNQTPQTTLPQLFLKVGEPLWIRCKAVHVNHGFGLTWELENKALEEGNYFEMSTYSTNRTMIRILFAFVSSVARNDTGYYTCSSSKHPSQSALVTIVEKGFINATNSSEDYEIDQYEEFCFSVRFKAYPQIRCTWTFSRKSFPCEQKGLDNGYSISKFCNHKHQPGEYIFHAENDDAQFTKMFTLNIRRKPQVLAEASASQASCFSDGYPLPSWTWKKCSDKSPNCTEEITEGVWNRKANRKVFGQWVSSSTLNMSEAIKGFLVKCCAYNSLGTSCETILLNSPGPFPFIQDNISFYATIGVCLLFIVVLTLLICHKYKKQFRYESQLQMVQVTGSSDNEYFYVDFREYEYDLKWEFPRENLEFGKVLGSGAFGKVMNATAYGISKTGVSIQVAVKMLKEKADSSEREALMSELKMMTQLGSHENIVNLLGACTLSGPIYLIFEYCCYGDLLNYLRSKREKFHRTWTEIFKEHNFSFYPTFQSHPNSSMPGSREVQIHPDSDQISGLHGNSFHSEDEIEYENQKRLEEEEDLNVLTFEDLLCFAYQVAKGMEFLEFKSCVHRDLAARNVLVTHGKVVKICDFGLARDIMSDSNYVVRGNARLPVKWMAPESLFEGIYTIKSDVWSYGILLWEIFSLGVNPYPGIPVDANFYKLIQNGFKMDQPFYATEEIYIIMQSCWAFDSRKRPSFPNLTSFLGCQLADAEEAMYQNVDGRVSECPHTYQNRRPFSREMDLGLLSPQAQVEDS
# MDA-MB-468 = assay: Growth inhibition of human MDA-MB-468 cells assessed as cell growth at 30 uM incubated for 48 hrs by sulforhodamine B assay relative to control; format: functional; details: MDA-MB-468, 48 h, read-out: Activity
structure (smiles),measurement,setting,value
COc1cc2cc(Oc3ccc(NC(=O)Nc4cccc(C(F)(F)F)c4)cc3)c(C)nc2cc1OC,growth at 50 µM,U-251 [1],-99%
same,growth at 0.005 µM,OVCAR-5,103%
same,growth at 0.05 µM,A498,106%
same,growth at 0.005 µM,SW-620,99%
same,growth at 0.005 µM,U-251 [2],98%
same,growth at 5 µM,NCI-H522,-4%
same,growth at 0.5 µM,RXF 393,103%
same,growth at 50 µM,M14,-61%
same,growth at 50 µM,OVCAR-8 [3],-90%
same,growth at 5 µM,SF-295,-14%
same,growth at 50 µM,PC-3,-65%
same,growth at 0.005 µM,MDA-MB-435,95%
same,growth at 0.5 µM,IGROV-1,113%
same,growth at 50 µM,BT-549,-69%
same,growth at 0.005 µM,KM12,90%
same,growth at 0.5 µM,OVCAR-8 [4],96%
same,growth at 0.05 µM,SK-MEL-28,98%
same,growth at 0.05 µM,NCI/ADR-RES,101%
same,growth at 50 µM,HOP-62,-85%
same,growth at 50 µM,SF-268,-32%
same,growth at 0.05 µM,DU-145 [5],94%
same,growth at 0.005 µM,T47D,90%
same,growth at 50 µM,COLO 205,-88%
same,growth at 50 µM,Malme-3M,-60%
same,growth at 0.5 µM,UACC-257,82%
same,growth at 0.5 µM,HL-60(TB),112%
same,growth at 50 µM,SK-MEL-2,-87%
same,growth at 0.005 µM,DU-145 [6],103%
same,growth at 5 µM,SK-OV-3,18%
COc1cc2cc(Oc3ccc(NC(=O)Nc4ccc(Cl)c(C(F)(F)F)c4)cc3)c(C)nc2cc1OC,growth at 3 µM,EKVX,5%
same,inhibition,[7],88.9%
same,inhibition,[8],33.5%
Cc1nc2cc(O)c(O)cc2cc1Oc1ccc(NC(=O)Nc2ccc(Cl)c(Cl)c2)cc1,growth at 30 µM,MDA-MB-468,-34%

# Reference: ChEMBL document CHEMBL3994622, “Design and synthesis of new RAF kinase-inhibiting antiproliferative quinoline derivatives. Part 2: Diarylurea derivatives” (Eur J Med Chem, 2017)
